# Data: patent publication US20250026721A1, “COMPOUNDS AND METHODS FOR MODULATING RAS-PI3K” (Vividion Therapeutics, Inc., priority 2023, published 2025)
# Target: T1, PIK3CA (Homo sapiens, UniProt P42336)
# T1 construct: endogenous in cells; host or cells: Jurkat cell lysate
# Test: In vitro ELISA target engagement assay for PIK3CA in Jurkat cellular lysate (competition with PIK3CA Biotin Probe)
# Type: binding
# Conditions: 1 hour at rt, then 500 nM PIK3CA Biotin Probe, read-out: Elisa Target Engagement Assay (TE50)
# Protocol: Example 3. In Vitro ELISA Target Engagement Assay for […] Engagement of compounds on PIK3CA were assessed in Jurkat cellular lysate via a sandwich ELISA. A solution of PIK3CA Biotin Probe was generated at 10 mM and used in the biological testing. […] Treatment Protocol: Jurkat cellular lysate was generated from frozen cell pellets. Cells were thawed on ice and resuspended in cold Dulbecco's phosphate buffered saline (DPBS) (12 mL/300 e^6 cells) then lysed by probe sonication (12×3 second pulses). Jurkat lysate was plated (50 μl/well) in Armadillo 96 well PCR plates (Thermo Fisher catalog number AB2396). The lysate was treated with serial dilutions of test compounds up to 200 μM and incubated for 1 hour at rt. Following compound incubation, PIK3CA Biotin Probe was added to a final concentration of 500 nM, and lysate was mixed by pipetting gently and incubated for an additional 1 hour at rt. The mixture was then diluted in 75 μL Dilution buffer. The mixture was centrifuged for 5 minutes at 4122 g and stored at −80° C. until ELISA TE detection. ELISA TE Detection: Quantification of PIK3CA TE was initiated by coating of the ELISA plate (Thermo Scientific White 384-Well Immuno plates; Thermo Fisher catalog number 460372). The capture antibody was diluted in plating buffer (1:83) and added to the ELISA plate, 20 μl/well, overnight at 4° C. The plate was then washed twice with PBST, 100 μl/well, and blocked with addition of blocking buffer (100 μl/well, 1 hour at rt). During block, treated and probe labeled lysate was thawed. After Block, the block buffer was removed and the thawed lysate was added to the ELISA plate, 30 μl/well, for 1.5 hours at rt. Following lysate incubation, the assay plate was washed 3 times with PBST, 100 μl/well. The Neutravidin-HRP was then diluted (1:500 in dilution buffer) and added for 1 hour at rt, 20 μl/well. Following incubation, the assay plate was washed 4 times with PBST, 100 μl/well, HRP substrate was added to plate, 20 μl/well and luminescence signal was read (Clariostar Plate Reader). For each compound the potency of target engagement (TE50) was determined using Graphpad Prism.
# T1 sequence (P42336 whole entry): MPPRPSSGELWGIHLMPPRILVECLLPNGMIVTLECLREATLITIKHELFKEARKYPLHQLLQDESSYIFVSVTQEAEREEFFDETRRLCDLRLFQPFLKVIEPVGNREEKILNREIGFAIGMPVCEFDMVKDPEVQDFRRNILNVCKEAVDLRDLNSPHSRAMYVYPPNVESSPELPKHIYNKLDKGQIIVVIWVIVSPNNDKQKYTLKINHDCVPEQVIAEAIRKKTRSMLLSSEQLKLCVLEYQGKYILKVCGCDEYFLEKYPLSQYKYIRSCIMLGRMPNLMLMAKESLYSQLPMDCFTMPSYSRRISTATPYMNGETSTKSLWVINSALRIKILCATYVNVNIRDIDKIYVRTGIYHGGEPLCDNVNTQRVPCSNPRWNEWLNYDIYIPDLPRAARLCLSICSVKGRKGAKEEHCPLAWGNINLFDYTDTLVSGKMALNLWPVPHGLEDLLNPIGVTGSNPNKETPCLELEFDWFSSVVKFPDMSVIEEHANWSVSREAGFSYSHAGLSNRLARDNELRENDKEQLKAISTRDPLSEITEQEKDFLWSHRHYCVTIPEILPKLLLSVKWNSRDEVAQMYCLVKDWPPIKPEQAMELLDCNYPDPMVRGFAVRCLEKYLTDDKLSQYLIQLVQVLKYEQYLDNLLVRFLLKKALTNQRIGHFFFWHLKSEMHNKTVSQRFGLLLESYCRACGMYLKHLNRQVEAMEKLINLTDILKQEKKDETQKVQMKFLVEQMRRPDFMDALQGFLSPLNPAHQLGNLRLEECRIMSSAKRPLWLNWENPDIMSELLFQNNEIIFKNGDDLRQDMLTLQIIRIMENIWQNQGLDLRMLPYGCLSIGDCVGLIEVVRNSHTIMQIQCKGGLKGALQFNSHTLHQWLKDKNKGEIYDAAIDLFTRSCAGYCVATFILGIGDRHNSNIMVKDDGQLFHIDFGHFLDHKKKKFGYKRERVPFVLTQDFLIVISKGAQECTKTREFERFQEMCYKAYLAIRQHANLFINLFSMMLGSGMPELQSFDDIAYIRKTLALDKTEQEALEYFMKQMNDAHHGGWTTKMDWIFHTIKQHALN
# T1 sequence (P27986 whole entry partner): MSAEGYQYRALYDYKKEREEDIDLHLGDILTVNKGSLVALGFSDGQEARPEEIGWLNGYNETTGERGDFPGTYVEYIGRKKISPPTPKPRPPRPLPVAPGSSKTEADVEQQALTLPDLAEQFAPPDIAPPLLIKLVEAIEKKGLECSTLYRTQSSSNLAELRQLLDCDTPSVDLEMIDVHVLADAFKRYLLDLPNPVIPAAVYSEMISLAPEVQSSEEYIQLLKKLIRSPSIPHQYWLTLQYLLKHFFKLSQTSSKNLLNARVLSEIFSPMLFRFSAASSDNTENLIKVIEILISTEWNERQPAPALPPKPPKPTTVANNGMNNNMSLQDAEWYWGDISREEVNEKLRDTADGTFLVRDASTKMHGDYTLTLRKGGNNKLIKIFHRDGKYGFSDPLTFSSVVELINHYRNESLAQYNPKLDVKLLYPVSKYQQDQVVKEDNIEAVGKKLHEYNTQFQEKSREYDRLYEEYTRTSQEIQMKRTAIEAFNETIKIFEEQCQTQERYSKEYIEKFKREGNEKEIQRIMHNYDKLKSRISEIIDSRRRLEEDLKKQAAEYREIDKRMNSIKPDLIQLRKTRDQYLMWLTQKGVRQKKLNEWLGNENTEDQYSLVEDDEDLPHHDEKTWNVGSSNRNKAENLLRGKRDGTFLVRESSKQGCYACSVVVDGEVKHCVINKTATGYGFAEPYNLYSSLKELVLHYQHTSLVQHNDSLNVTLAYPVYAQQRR
row,SMILES,IC50 [nM]
1,"C[C@H](/C=C\S(C)(=O)=O)NC(=O)C1(F)CCN(C(=O)[C@H]2CCN(C(=O)OC(C)(C)C)C[C@H]2c2ccccc2Cl)CC1 (relative stereo) [Compound 259, tert-butyl (3*R,4*S)-3-(2-chlorophenyl)-4-(4-fluoro-4-(((R,Z)-4-(methylsulfonyl)but-3-en-2-yl)carbamoyl)piperidine-1-carbonyl)piperidine-1-carboxylate]",660
2,"COc1ccc(S(=O)(=O)N2CCC(OC)(C(=O)N[C@H](C)/C=C\S(C)(=O)=O)CC2)c(-c2ccccc2Cl)c1 [Compound 146, 1-[2-(2-chlorophenyl)-4-methoxy-phenyl]sulfonyl-4-methoxy-N—[(Z,1R)-1-methyl-3-methylsulfonyl-allyl]piperidine-4-carboxamide]",610
3,"C[C@H](/C=C/C(=O)N1CC(F)(F)C1)NC(=O)[C@]1(F)CCN(S(=O)(=O)c2ccc(C#N)cc2-c2ccccc2Cl)[C@H](C)C1 [Compound 154, (2R,4S)-1-((2′-chloro-5-cyano-[1,1′-biphenyl]-2-yl)sulfonyl)-N-((R,E)-5-(3,3-difluoroazetidin-1-yl)-5-oxopent-3-en-2-yl)-4-fluoro-2-methylpiperidine-4-carboxamide]",190
4,"C[C@H](/C=C\S(C)(=O)=O)NC(=O)C1(F)CCN(C(=O)[C@H]2CN(C(=O)c3ccccc3)C[C@H]2c2ccccc2Cl)CC1 [Compound 162, 1-((3R,4R)-1-benzoyl-4-(2-chlorophenyl)pyrrolidine-3-carbonyl)-4-fluoro-N-((R,Z)-4-(methylsulfonyl)but-3-en-2-yl)piperidine-4-carboxamide]",770
5,"CC(C)OC(=O)N1C[C@H](c2ccccc2Cl)[C@H](C(=O)N2CCC(F)(C(=O)N[C@H](C)/C=C\S(C)(=O)=O)CC2)C1 [Compound 199, isopropyl (3S,4S)-3-(2-chlorophenyl)-4-(4-fluoro-4-(((R,Z)-4-(methylsulfonyl)but-3-en-2-yl)carbamoyl)piperidine-1-carbonyl) pyrrolidine-1-carboxylate]",900
6,"CC[C@@H](/C=C/S(=O)(=O)C1CNC1)NC(=O)C1(F)CCN(S(=O)(=O)c2ccc(Br)cc2-c2ccccc2Cl)CC1 [Compound 78, (S,E)-N-(1-(azetidin-3-ylsulfonyl)pent-1-en-3-yl)-1-((5-bromo-2′-chloro-[1,1′-biphenyl]-2-yl)sulfonyl)-4-fluoropiperidine-4-carboxamide]",461
7,"C[C@@H](/C=C\C(=O)N1CC(F)(F)C1)NC(=O)C1(F)CCN(S(=O)(=O)c2ccc(Br)cc2-c2ccccc2Cl)CC1 [Compound 287, (S,Z)-1-((5-bromo-2′-chloro-[1,1′-biphenyl]-2-yl)sulfonyl)-N-(5-(3,3-difluoroazetidin-1-yl)-5-oxopent-3-en-2-yl)-4-fluoropiperidine-4-carboxamide]",830
8,"C[C@@H](/C=C\S(C)(=O)=O)NC(=O)C1(F)CCN(S(=O)(=O)c2ccc(C(F)(F)F)cc2-c2ccccc2Cl)CC1 [Compound 18, (S,Z)-1-((2′-chloro-5-(trifluoromethyl)-[1,1′-biphenyl]-2-yl)sulfonyl)-4-fluoro-N-(4-(methylsulfonyl)but-3-en-2-yl)piperidine-4-carboxamide]",38
9,"C[C@@H]1C[C@](F)(C(=O)NC/C=C\C(=O)N2CC(F)(F)C2)CCN1S(=O)(=O)c1ccc(Br)cc1-c1ccccc1Cl [Compound 291, (2R,4S)-1-((5-bromo-2′-chloro-[1,1′-biphenyl]-2-yl)sulfonyl)-N-((Z)-4-(3,3-difluoroazetidin-1-yl)-4-oxobut-2-en-1-yl)-4-fluoro-2-methylpiperidine-4-carboxamide]",320

# Further compounds by falling IC50, results first:
row,IC50 [nM],SMILES
1,910,"C[C@H](/C=C\S(C)(=O)=O)NC(=O)C1(F)CCN(C(=O)[C@H]2CN(CC(F)(F)C(F)(F)F)C[C@H]2c2ccccc2Cl)CC1 [Compound 182, 1-((3R,4R)-4-(2-chlorophenyl)-1-(2,2,3,3,3-pentafluoropropyl)pyrrolidine-3-carbonyl)-4-fluoro-N-((R,Z)-4-(methylsulfonyl)but-3-en-2-yl)piperidine-4-carboxamide]"
2,883,"C[C@H](/C=C\S(C)(=O)=O)NC(=O)C1(F)CCN(C(=O)C2CCN(C(=O)OC(C)(C)C)C=C2c2ccccc2Cl)CC1 (stereo partly drawn) [Compound 258, tert-butyl 5-(2-chlorophenyl)-4-(4-fluoro-4-(((R,Z)-4-(methylsulfonyl)but-3-en-2-yl)carbamoyl)piperidine-1-carbonyl)-3,4-dihydropyridine-1(2H)-carboxylate]"
3,780,"C[C@H](/C=C\S(C)(=O)=O)NC(=O)C1(F)CCN(C(=O)[C@H]2COC(C)(C)C[C@@H]2c2ccccc2Cl)CC1 (racemic) [Compound 256, 1-((3*R,4*S)-4-(2-chlorophenyl)-6,6-dimethyltetrahydro-2H-pyran-3-carbonyl)-4-fluoro-N-((R,Z)-4-(methylsulfonyl)but-3-en-2-yl)piperidine-4-carboxamide]"
4,760,"CCOCc1cccc(-c2cc(Cl)ccc2S(=O)(=O)N2CCC(F)(C(=O)N[C@@H](C)/C=C\S(C)(=O)=O)CC2)c1 [Compound 17, (S,Z)-1-((5-chloro-3′-(ethoxymethyl)-[1,1′-biphenyl]-2-yl)sulfonyl)-4-fluoro-N-(4-(methylsulfonyl)but-3-en-2-yl)piperidine-4-carboxamide]"
5,710,"Cc1cccc(-c2cc(Br)ccc2S(=O)(=O)N2CCC(F)(C(=O)N[C@H](C)/C=C\S(C)(=O)=O)CC2)c1Cl [Compound 59, (R,Z)-1-((5-bromo-2′-chloro-3′-methyl-[1,1′-biphenyl]-2-yl)sulfonyl)-4-fluoro-N-(4-(methylsulfonyl)but-3-en-2-yl)piperidine-4-carboxamide]"
6,460,"C[C@@H]1C[C@](F)(C(=O)NC/C=C\C(=O)N2CC(F)(F)C2)CCN1S(=O)(=O)c1cnc(C(F)(F)F)cc1-c1ccccc1Cl [Compound 289, (2R,4S)-1-((4-(2-chlorophenyl)-6-(trifluoromethyl)pyridin-3-yl)sulfonyl)-N-((Z)-4-(3,3-difluoroazetidin-1-yl)-4-oxobut-2-en-1-yl)-4-fluoro-2-methylpiperidine-4-carboxamide]"
7,330,"COC1(C(=O)N[C@H](C)/C=C\S(C)(=O)=O)CCN(S(=O)(=O)c2ccc(C(F)(F)F)cc2-c2ccccc2Cl)CC1 [Compound 139, (R,Z)-1-((2′-chloro-5-(trifluoromethyl)-[1,1′-biphenyl]-2-yl)sulfonyl)-4-methoxy-N-(4-(methylsulfonyl)but-3-en-2-yl)piperidine-4-carboxamide]"
8,310,"COc1ccc(S(=O)(=O)N2CC[C@](F)(C(=O)N[C@H](C)/C=C\S(C)(=O)=O)CC2(C)C)c(-c2ccccc2Cl)c1 (single isomer, unassigned) [Compound 150, (*R)-1-((2′-chloro-5-methoxy-[1,1′-biphenyl]-2-yl)sulfonyl)-4-fluoro-2,2-dimethyl-N-((R,Z)-4-(methylsulfonyl)but-3-en-2-yl)piperidine-4-carboxamide]"
9,304,"C[C@H](/C=C\S(C)(=N)=O)NC(=O)C1(F)CCN(S(=O)(=O)c2ccc(Br)cc2-c2ccccc2Cl)CC1 (mixture of isomers) [Compound 73, 1-((5-bromo-2′-chloro-[1,1′-biphenyl]-2-yl)sulfonyl)-4-fluoro-N-((2R,Z)-4-(S-methylsulfonimidoyl)but-3-en-2-yl)piperidine-4-carboxamide]"
10,220,"C[C@H](/C=C\S(C)(=O)=O)NC(=O)[C@]1(F)CCN(S(=O)(=O)c2cnc(C(F)(F)F)cc2-c2ccccc2Cl)[C@H](C)C1 [Compound 214, (2R,4S)-1-((4-(2-chlorophenyl)-6-(trifluoromethyl)pyridin-3-yl)sulfonyl)-4-fluoro-2-methyl-N-((R,Z)-4-(methylsulfonyl)but-3-en-2-yl)piperidine-4-carboxamide]"
11,198,"CC[C@@H](/C=C\S(C)(=O)=O)NC(=O)C1(F)CCN(S(=O)(=O)c2ccc(Br)cc2-c2ccccc2Cl)CC1 [Compound 82, (S,Z)-1-((5-bromo-2′-chloro-[1,1′-biphenyl]-2-yl)sulfonyl)-4-fluoro-N-(1-(methylsulfonyl)pent-1-en-3-yl)piperidine-4-carboxamide]"
12,140,"C[C@@H](/C=C/S(=O)(=O)C1CNC1)NC(=O)C1(F)CCN(S(=O)(=O)c2ccc(Br)cc2-c2ccccc2Cl)CC1 [Compound 75, (S,E)-N-(4-(azetidin-3-ylsulfonyl)but-3-en-2-yl)-1-((5-bromo-2′-chloro-[1,1′-biphenyl]-2-yl)sulfonyl)-4-fluoropiperidine-4-carboxamide]"
13,125,"Cc1ccccc1-c1cc(Br)ccc1S(=O)(=O)N1CCC(F)(C(=O)N[C@H](C)/C=C\S(C)(=O)=O)CC1 [Compound 49, (R,Z)-1-((5-bromo-2′-methyl-[1,1′-biphenyl]-2-yl)sulfonyl)-4-fluoro-N-(4-(methylsulfonyl)but-3-en-2-yl)piperidine-4-carboxamide]"
